# Results published in patent publication US20260007613A1, “LONG-ACTING LOW-TOXICITY NOVEL CATIONIC LIPID COMPOUNDS AND COMPOSITION THEREOF” (BEIJING YOUCAREKECHUANG PHARMACEUTICAL TECHNOLOGY CO., LTD., priority 2023, published 2026).
# Several values for one entry are separate records, joined by “and”; a condition that tells them apart may be missing. Equal entries are not always repeated.
# Columns and labels:
# [1] = Particle size and polydispersity index (PDI) of lipid nanoparticles by dynamic light scattering; type: physicochemical; details: LNP formulation prepared from the cationic lipid, 25° C.
# Protocol: The particle size and polydispersity index (PDI) were determined by dynamic light scattering using Malvern laser particle size analyzer.
# 10 μL of the liposome solution was weighed, diluted to 1 mL with RNase-free deionized water, and added to the sample pool. Each sample was measured in triplicate. The measurement conditions were: […] scattering angle, and 25° C.
# [2] = test system: 293T cells; experiment: Fluorescent detection of Fluc-mRNA (cell transfection efficiency of LNP formulations); type: cell-based; details: for Relative light unit (RLU): LNP formulation of Fluc-mRNA, 96-well plate, 24 hours; for Multiples (YK-305): RLU of YK-305 / RLU of the lipid of the line; for Multiples (YK-310): RLU of YK-310 / RLU of the lipid of the line; for Multiples (YK-312): RLU of YK-312 / RLU of the lipid of the line; for Multiples (YK-318): RLU of YK-318 / RLU of the lipid of the line; for Multiples (YK-318) / Multiples (YK-319): Tables 5, 7, 11; for Multiples (YK-319): RLU of YK-319 / RLU of the lipid of the line; for Ratio relative to SM-102: RLU of the lipid / RLU of SM-102, times that of SM-102
# Protocol: (§1) Cell recovery and passage: 293T cells were recovered, cultured in a culture dish, and passaged to the required number of cells.
# (§2) Seeding plate: The cells in the culture dish were digested and counted. Cells were spread in a 96-well plate at 10,000 cells per well and in a 12-well plate at 150,000 cells per well. Cells were cultured overnight until the cells adhered to the wall.
# (§3) Cell recovery and passage: the method was the same as in Example 3.
# (§4) Seeding plate: the method was the same as in Example 3.
# An LNP formulation containing […] of Fluc-mRNA (the carrier components of the LNP formulation were cationic lipid, neutral lipid, structured lipid and polymer-conjugated lipid with a molar ratio of 49:10:39.5:1.5, wherein the cationic lipid was listed in Table 1) was added to the cell culture medium of a 96-well plate, and further incubated for 24 hours. The corresponding reagent was added according to the instructions of the […] Luciferase Assay Kit, and the fluorescence expression intensity of each well was detected by an IVIS fluorescence detection system. This test verified the transfection efficiencies of LNP formulations in cells, see Tables 4-7 for specific test results.
# [3] = test system: 293T cells; experiment: Cell survival rate determination (CCK-8); type: cell-based; details: for Cell survival rate (%): LNP formulation of Fluc-mRNA, 24 hours, CCK-8
# Protocol: as §1, §2, §3, §4
# An LNP formulation containing […] of Fluc-mRNA (the carrier components of the LNP formulation were cationic lipid, neutral lipid, structured lipid and polymer-conjugated lipid with a molar ratio of 49:10:39.5:1.5, wherein the cationic lipid was listed in Table 1) and the formulation of Lipofectamine 3000 were added to the cell culture medium of a 96-well plate, and further cultivated for 24 hours. 10 μL of CCK-8 solution was then added to each well, and the culture plate was incubated in an incubator for 1 hour. The absorbance at 450 nm was measured by a microplate reader.
# Cell survival rate can represent the toxicity of cationic lipids to cells. The higher the cell survival rate, the lower the toxicity to cells.
# [4] = test system: female BALB/C mice; experiment: Live imaging in mice: protein expression of Fluc-mRNA delivered by LNP formulations; type: in vivo; details: for average radiation intensity, times that of ALC-0315: comparator ALC-0315; for average radiation intensity, times that of HHMA: comparator HHMA; for average radiation intensity, times that of SM-102: comparator SM-102; for expression of mRNA in mice, times that of YK-302: comparator YK-302; for expression amount, times that of YK-321: comparator YK-321; for average radiation intensity, times that of compound 21: comparator compound 21; for average radiation intensity, times that of compound 23: comparator compound 23
# Protocol: In addition, the protein expression and duration of mRNA in mice delivered by the cationic lipid delivery carriers designed were also verified.
# The LNP formulation containing […] Fluc-mRNA was injected intramuscularly into female BALB/C mice aged 4 to 6 weeks old and weighed 17 to 19 g, and the mice were intraperitoneally injected with fluorescent imaging substrate at specific time points after administration (6 h, 24 h, 48 h and 7 d), where the mice were free to move for 5 minutes, and then the average radiation intensity (corresponding to fluorescence expression intensity) of the protein expression of the mRNA carried by the LNP in the mice was detected by the IVIS Spectrum small animal live imaging device.
# [5] = 6 h after intramuscular injection
# [6] = 24 h after intramuscular injection
# [7] = 48 h after intramuscular injection
# [8] = 7 d after intramuscular injection
compound,measurement,setting,value
"CCCCCCCCC(CCCCCCCC)OC(=O)CCCCCN(CCCCCC(=O)OC(CCCCCCCC)CCCCCCCC)C[C@H](O)CN(CCO)CCO [YK-318, (S)-bis(heptadecan-9-yl)-6,6′-((3-(bis(2-hydroxyethyl)amino)-2-hydroxypropyl)azanediyl)dihexanoate]",PDI (%),[1],14.8%
same,Particle size (nm),[1],173 nm
same,Relative light unit (RLU),[2],11190068 RLU
same,Multiples (YK-305),[2],2.45
same,Multiples (YK-310),[2],2.31
same,Multiples (YK-312),[2],1.80
same,Multiples (YK-318),[2],1.00
same,Multiples (YK-319),[2],2.19
same,Ratio relative to SM-102,[2],6.98
same,"cell transfection efficiency, times that of ALC-0315",[2]; comparator ALC-0315,5.50 times
same,"cell transfection efficiency, times that of HHMA",[2]; comparator HHMA,5.58 times
same,"cell transfection efficiency, times that of Lipofectamine 3000",[2]; comparator Lipofectamine 3000,9.44 times
same,"cell transfection efficiency, times that of YK-009",[2]; comparator YK-009,2.19 times
same,"cell transfection efficiency, times that of YK-301",[2]; comparator YK-301,13.28 times
same,"cell transfection efficiency, times that of YK-302",[2]; comparator YK-302,402.84 times
same,"cell transfection efficiency, times that of YK-303",[2]; comparator YK-303,17.87 times
same,"cell transfection efficiency, times that of YK-304",[2]; comparator YK-304,~400 times and 540.95 times
same,"cell transfection efficiency, times that of YK-306",[2]; comparator YK-306,5.09 times
same,"cell transfection efficiency, times that of YK-307",[2]; comparator YK-307,2.46 times
same,"cell transfection efficiency, times that of YK-308",[2]; comparator YK-308,4.86 times
same,"cell transfection efficiency, times that of YK-309",[2]; comparator YK-309,~90 times and 89.26 times
same,"cell transfection efficiency, times that of YK-311",[2]; comparator YK-311,5.70 times
same,"cell transfection efficiency, times that of YK-313",[2]; comparator YK-313,12.91 times
same,"cell transfection efficiency, times that of YK-314",[2]; comparator YK-314,20.44 times
same,"cell transfection efficiency, times that of YK-315",[2]; comparator YK-315,7.05 times
same,"cell transfection efficiency, times that of YK-316",[2]; comparator YK-316,2.33 times
same,"cell transfection efficiency, times that of YK-317",[2]; comparator YK-317,3.10 times
same,"cell transfection efficiency, times that of YK-320",[2]; comparator YK-320,4.14 times
same,"cell transfection efficiency, times that of YK-321",[2]; comparator YK-321,7.97 times
same,"cell transfection efficiency, times that of compound 21",[2]; comparator compound 21,7.81 times
same,"cell transfection efficiency, times that of compound 23",[2]; comparator compound 23,8.25 times
same,Cell survival rate (%),[3],75.56%
same,cell survival rate higher than ALC-0315,"[3]; difference of survival rates, comparator ALC-0315",24.53%
same,cell survival rate higher than HHMA,"[3]; difference of survival rates, comparator HHMA",9.09%
same,cell survival rate higher than Lipofectamine 3000,"[3]; difference of survival rates, comparator Lipofectamine 3000",50.55%
same,cell survival rate higher than SM-102,"[3]; difference of survival rates, comparator SM-102",6.11%
same,cell survival rate higher than YK-301,"[3]; difference of survival rates, comparator YK-301",22.60%
same,cell survival rate higher than YK-302,"[3]; difference of survival rates, comparator YK-302",59.13%
same,cell survival rate higher than YK-303,"[3]; difference of survival rates, comparator YK-303",12.24%
same,cell survival rate higher than YK-304,"[3]; difference of survival rates, comparator YK-304",41.40%
same,cell survival rate higher than YK-306,"[3]; difference of survival rates, comparator YK-306",33.37%
same,cell survival rate higher than YK-307,"[3]; difference of survival rates, comparator YK-307",14.42%
same,cell survival rate higher than YK-308,"[3]; difference of survival rates, comparator YK-308",4.57%
same,cell survival rate higher than YK-309,"[3]; difference of survival rates, comparator YK-309",43.95%
same,cell survival rate higher than YK-311,"[3]; difference of survival rates, comparator YK-311",5.50%
same,cell survival rate higher than YK-313,"[3]; difference of survival rates, comparator YK-313",6.63%
same,cell survival rate higher than YK-314,"[3]; difference of survival rates, comparator YK-314",7.68%
same,cell survival rate higher than YK-315,"[3]; difference of survival rates, comparator YK-315",4.28%
same,cell survival rate higher than YK-316,"[3]; difference of survival rates, comparator YK-316",5.03%
same,cell survival rate higher than YK-317,"[3]; difference of survival rates, comparator YK-317",16.38%
same,cell survival rate higher than YK-320,"[3]; difference of survival rates, comparator YK-320",4.49%
same,cell survival rate higher than YK-321,"[3]; difference of survival rates, comparator YK-321",3.22%
same,cell survival rate higher than compound 21,"[3]; difference of survival rates, comparator compound 21",5.35%
same,cell survival rate higher than compound 23,"[3]; difference of survival rates, comparator compound 23",4.06%
same,"average radiation intensity, times that of ALC-0315",[4]; 6 h,3.85 times
same,"average radiation intensity, times that of HHMA",[4]; 6 h,5.11 times
same,"average radiation intensity, times that of SM-102",[4]; 6 h,4.74 times
same,"expression of mRNA in mice, times that of YK-302",[4]; 6 h,228.10 times
same,"expression amount, times that of YK-321",[4]; 6 h,6.45 times
same,"average radiation intensity, times that of compound 21",[4]; 6 h,5.45 times
same,"average radiation intensity, times that of compound 23",[4]; 6 h,5.64 times
same,average radiation intensity,[4]; [5],3325680
same,"average radiation intensity, times that of ALC-0315",[4]; 24 h,5.08 times
same,"average radiation intensity, times that of HHMA",[4]; 24 h,8.08 times
same,"average radiation intensity, times that of SM-102",[4]; 24 h,8.04 times
same,"expression of mRNA in mice, times that of YK-302",[4]; 24 h,244.83 times
same,"expression amount, times that of YK-321",[4]; 24 h,9.57 times
same,"average radiation intensity, times that of compound 21",[4]; 24 h,8.82 times
same,"average radiation intensity, times that of compound 23",[4]; 24 h,9.27 times
same,average radiation intensity,[4]; [6],968540
same,"average radiation intensity, times that of ALC-0315",[4]; 48 h,8.96 times
same,"average radiation intensity, times that of HHMA",[4]; 48 h,10.96 times
same,"average radiation intensity, times that of SM-102",[4]; 48 h,10.96 times
same,"expression of mRNA in mice, times that of YK-302",[4]; 48 h,348.11 times
same,"expression amount, times that of YK-321",[4]; 48 h,9.76 times
same,"average radiation intensity, times that of compound 21",[4]; 48 h,11.52 times
same,"average radiation intensity, times that of compound 23",[4]; 48 h,10.77 times
same,average radiation intensity,[4]; [7],356810
same,"average radiation intensity, times that of ALC-0315",[4]; 7 d,7.19 times
same,"average radiation intensity, times that of HHMA",[4]; 7 d,8.63 times
same,"average radiation intensity, times that of SM-102",[4]; 7 d,7.65 times
same,"expression of mRNA in mice, times that of YK-302",[4]; 7 d,131.92 times
same,"expression amount, times that of YK-321",[4]; 7 d,7.69 times
same,"average radiation intensity, times that of compound 21",[4]; 7 d,7.86 times
same,"average radiation intensity, times that of compound 23",[4]; 7 d,8.12 times
same,average radiation intensity,[4]; [8],50659
"CCCCCCCCCCOC(=O)CCCN(CCO)CCCCCC(=O)OCC(CCCCCCCC)CCCCCCCC [YK-009, reference compound]",PDI (%),[1],18.1%
same,Particle size (nm),[1],192 nm
same,Relative light unit (RLU),[2],5118942 RLU
same,Multiples (YK-305),[2],5.35
same,Multiples (YK-310),[2],5.04
same,Multiples (YK-312),[2],3.94
same,Multiples (YK-318),[2],2.19
same,Multiples (YK-319),[2],4.78
same,Ratio relative to SM-102,[2],3.19
same,Cell survival rate (%),[3],72.55%
same,average radiation intensity,[4]; [5],1004580
same,average radiation intensity,[4]; [6],754120
same,average radiation intensity,[4]; [7],110140
same,average radiation intensity,[4]; [8],9984
